{
  "source": "patent US11332395B2",
  "about": "“Sanitary food washing stage in food production” (CHEMTREAT, INC., priority 2019, dated 2022)",
  "key": {"[1]": {"conditions": "spray table water, initial pH 6.3, 60° F", "experimental": "Water samples were taken from the spray table of a sugar beet factory. […] The hydrogen peroxide concentration was measured periodically over a 60 minute period. The oxidation-reduction potential (ORP) was measured over the same period."}, "[2]": {"conditions": "flume return (clarifier inlet) water, initial pH 6.4, 62° F", "experimental": "Water samples were taken from the flume return (clarifier inlet) in a sugar beet factory. […] The hydrogen peroxide concentration was measured periodically over a 60 minute period. The oxidation-reduction potential (ORP) was measured over the same period."}, "[3]": {"conditions": "initial dose 60 ppm, time 5 min"}, "[4]": {"conditions": "initial dose 60 ppm, time 30 min"}, "[5]": {"conditions": "initial dose 60 ppm, time 45 min"}, "[6]": {"conditions": "initial dose 60 ppm, time 60 min"}, "[7]": {"conditions": "initial dose 120 ppm, time 5 min"}, "[8]": {"conditions": "initial dose 120 ppm, time 30 min"}, "[9]": {"conditions": "initial dose 120 ppm, time 45 min"}, "[10]": {"conditions": "initial dose 120 ppm, time 60 min"}, "[11]": {"conditions": "initial dose 180 ppm, time 5 min"}, "[12]": {"conditions": "initial dose 180 ppm, time 30 min"}, "[13]": {"conditions": "initial dose 180 ppm, time 45 min"}, "[14]": {"conditions": "initial dose 180 ppm, time 60 min"}},
  "note": "Where two headings read alike, the source gives them in different places.",
  "data": [
    {"molecule": "OO", "note": "[H2O2, hydrogen peroxide]", "values": [
      {"measurement": "H2O2 concentration", "setting": "[1]; [3]", "value": 50, "unit": "ppm"},
      {"measurement": "H2O2 concentration", "setting": "[1]; [4]", "value": 5, "unit": "ppm"},
      {"measurement": "H2O2 concentration", "setting": "[1]; [5]", "value": 0.5, "unit": "ppm"},
      {"measurement": "H2O2 concentration", "setting": "[1]; [6]", "value": "<0.5", "unit": "ppm"},
      {"measurement": "H2O2 concentration", "setting": "[1]; [7]", "value": ">100", "unit": "ppm"},
      {"measurement": "H2O2 concentration", "setting": "[1]; [8]", "value": 15, "unit": "ppm"},
      {"measurement": "H2O2 concentration", "setting": "[1]; [9]", "value": 2, "unit": "ppm"},
      {"measurement": "H2O2 concentration", "setting": "[1]; [10]", "value": 1, "unit": "ppm"},
      {"measurement": "H2O2 concentration", "setting": "[1]; [11]", "value": ">100", "unit": "ppm"},
      {"measurement": "H2O2 concentration", "setting": "[1]; [12]", "value": 25, "unit": "ppm"},
      {"measurement": "H2O2 concentration", "setting": "[1]; [13]", "value": 5, "unit": "ppm"},
      {"measurement": "H2O2 concentration", "setting": "[1]; [14]", "value": 3, "unit": "ppm"},
      {"measurement": "H2O2 concentration", "setting": "[2]; [3]", "value": 50, "unit": "ppm"},
      {"measurement": "H2O2 concentration", "setting": "[2]; [4]", "value": 3, "unit": "ppm"},
      {"measurement": "H2O2 concentration", "setting": "[2]; [5]", "value": 0.5, "unit": "ppm"},
      {"measurement": "H2O2 concentration", "setting": "[2]; [6]", "value": 0, "unit": "ppm"},
      {"measurement": "H2O2 concentration", "setting": "[2]; [7]", "value": ">100", "unit": "ppm"},
      {"measurement": "H2O2 concentration", "setting": "[2]; [8]", "value": 10, "unit": "ppm"},
      {"measurement": "H2O2 concentration", "setting": "[2]; [9]", "value": 3, "unit": "ppm"},
      {"measurement": "H2O2 concentration", "setting": "[2]; [10]", "value": "<0.5", "unit": "ppm"},
      {"measurement": "H2O2 concentration", "setting": "[2]; [11]", "value": ">100", "unit": "ppm"},
      {"measurement": "H2O2 concentration", "setting": "[2]; [12]", "value": 25, "unit": "ppm"},
      {"measurement": "H2O2 concentration", "setting": "[2]; [13]", "value": 5, "unit": "ppm"},
      {"measurement": "H2O2 concentration", "setting": "[2]; [14]", "value": 1, "unit": "ppm"}
    ]}
  ]
}
